Reference: ChEMBL document CHEMBL1201862, “PubChem BioAssay data set” (2004)
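Compound exposure: 48 hours, 5 concentrations, 96-well plates. Here, GI50 denotes the concentration required for 50% inhibition of growth.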 The source made the active and inactive calls. No stated cut-off is given here; in the data, active = GI50 up to about 1.1 µM and inactive = higher.

Key:
Assay in all cases: growth of human tumour cells (NCI), 48 h
[1] = tested on: SK-OV-3
[2] = tested on: COLO 205
[3] = tested on: MCF7
[4] = tested on: IGROV-1
[5] = tested on: CCRF-CEM
[6] = tested on: 786-0
[7] = tested on: MDA-N
[8] = tested on: T47D
[9] = tested on: HCT-15
[10] = tested on: HOP-92
[11] = tested on: NCI-H226
[12] = tested on: NCI/ADR-RES
[13] = tested on: SN12C
[14] = tested on: M14
[15] = tested on: OVCAR-4
[16] = tested on: SNB-75
[17] = tested on: M19-MEL
[18] = tested on: KM12
[19] = tested on: HCC 2998
[20] = tested on: HL-60

Compound	GI50 [1]	GI50 [2]	GI50 [3]	GI50 [4]	GI50 [5]	GI50 [6]	GI50 [7]	GI50 [8]	GI50 [9] [µM]	GI50 [10]	GI50 [11]	GI50 [12]	GI50 [13]	GI50 [14]	GI50 [15]	GI50 [16]	GI50 [17]	GI50 [18]	GI50 [19]	GI50 [20]
O=C(CCBr)N1CCN(C(=O)CCBr)CC1 [PIPOBROMAN]	105 µM (inactive)	92.3 µM (inactive)	52.4 µM (inactive)	97.5 µM (inactive)	15.1 µM (inactive)	57.9 µM (inactive)	89.9 µM (inactive)	106 µM (inactive)	83.8	126 µM (inactive)	84.9 µM (inactive)	81.8 µM (inactive)	42.6 µM (inactive)	57.7 µM (inactive)	86.9 µM (inactive)	71.4 µM (inactive)	86.9 µM (inactive)	> 93.5 µM (inactive)	69.3 µM (inactive)	13.7 µM (inactive)
COC(=O)/C=C\C1C(C(=O)OC)C2(C(=O)OC)CCC1(C(=O)OC)N2 (centres undefined)	17.9 µM (inactive)	4.19 µM (inactive)	–	26.9 µM (inactive)	4.15 µM (inactive)	15.3 µM (inactive)	–	–	3.33	4.81 µM (inactive)	19.1 µM (inactive)	–	16.3 µM (inactive)	14.9 µM (inactive)	19.1 µM (inactive)	18.5 µM (inactive)	14.7 µM (inactive)	20.5 µM (inactive)	17.3 µM (inactive)	2.51 µM (inactive)
Sc1nnc(COc2ccc(Cl)cc2)o1	> 100 µM (inactive)	> 100 µM (inactive)	–	> 100 µM (inactive)	> 100 µM (inactive)	> 100 µM (inactive)	–	–	31.2	84.3 µM (inactive)	> 100 µM (inactive)	–	> 100 µM (inactive)	> 100 µM (inactive)	> 100 µM (inactive)	> 100 µM (inactive)	> 100 µM (inactive)	> 100 µM (inactive)	> 100 µM (inactive)	> 100 µM (inactive)
N#Cc1cnsc1	> 100 µM (inactive)	> 100 µM (inactive)	–	> 100 µM (inactive)	> 100 µM (inactive)	> 100 µM (inactive)	–	–	> 100	> 100 µM (inactive)	> 100 µM (inactive)	–	> 100 µM (inactive)	> 100 µM (inactive)	> 100 µM (inactive)	> 100 µM (inactive)	> 100 µM (inactive)	> 100 µM (inactive)	> 100 µM (inactive)	> 100 µM (inactive)
Cn1c(=O)nc2n(-c3ccc(O)cc3)c3ccccc3nc-2c1=O	> 100 µM (inactive)	23.9 µM (inactive)	–	> 100 µM (inactive)	33 µM (inactive)	17.3 µM (inactive)	–	–	> 100	26.4 µM (inactive)	92.3 µM (inactive)	–	> 100 µM (inactive)	20.4 µM (inactive)	> 100 µM (inactive)	9.23 µM (inactive)	20 µM (inactive)	55.3 µM (inactive)	29.9 µM (inactive)	> 100 µM (inactive)
CCCCCCCCCCNC1CC(OC2CC(O)(C(O)CO)Cc3c(O)c4c(c(O)c32)C(=O)c2c(OC)cccc2C4=O)OC(C)C1O (centres undefined)	1.6 µM (inactive)	1.66 µM (inactive)	1.01 µM (active)	1.74 µM (inactive)	0.388 µM (active)	1.84 µM (inactive)	1.5 µM (inactive)	1.86 µM (inactive)	1.56	1.47 µM (inactive)	1.79 µM (inactive)	1.88 µM (inactive)	1.65 µM (inactive)	1.69 µM (inactive)	1.53 µM (inactive)	1.62 µM (inactive)	1.65 µM (inactive)	1.5 µM (inactive)	1.33 µM (inactive)	0.434 µM (active)
